Experimental findings from patent US9884048B2, “ERK inhibitors” (Merck Sharp & Dohme Corp., priority 2014, dated 2018) are described below.

Each structure is given as a SMILES string.

Chain of phosphorylated active hERK2 enzyme (P28482 whole entry): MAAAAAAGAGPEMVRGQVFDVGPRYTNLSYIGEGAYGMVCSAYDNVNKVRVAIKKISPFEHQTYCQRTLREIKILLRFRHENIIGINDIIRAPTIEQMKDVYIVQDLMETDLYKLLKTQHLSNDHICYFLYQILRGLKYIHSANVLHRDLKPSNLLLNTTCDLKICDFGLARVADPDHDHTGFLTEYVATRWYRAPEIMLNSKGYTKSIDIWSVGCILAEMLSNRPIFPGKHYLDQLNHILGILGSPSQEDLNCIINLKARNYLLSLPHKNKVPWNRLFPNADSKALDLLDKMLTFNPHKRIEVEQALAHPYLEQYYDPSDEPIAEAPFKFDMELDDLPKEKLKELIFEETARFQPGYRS

The assay addresses phosphorylated active hERK2 enzyme (Homo sapiens (Human), UniProt P28482). The note with it: read-out: ERK2 IC50; IMAP-FP assay; 0.5 nM hERK2, 30 μM ATP; 10 point titration, 3 μM starting concentration.
A word on the IC50: it is the concentration that gives 50% inhibition. On to `CCNC(=O)OCc1nc(NC(=O)N[C@H](C)c2ccccc2)cc2cnn(-c3ccc(F)cc3)c12` [Example 327, [1-(4-Fluorophenyl)-5-({[(1R)-1-phenylethyl]carbamoyl}amino)-1H-pyrazolo[3,4-c]pyridin-7-yl]methyl ethylcarbamate], for which the 50% inhibitory concentration (IC50) came out at 116 nM.

As for `C[C@@H](NC(=O)Nc1cc2cn[nH]c2c(CO)n1)c1ccccc1` [Example 229, (R)-1-(7-(hydroxymethyl)-1H-pyrazolo[3,4-c]pyridin-5-yl)-3-(1-phenylethyl)urea], the IC50 was found to be 41 nM.

As to `Cc1cc(-n2ncc3cc(NC(=O)N[C@@H](c4ccc(F)cc4)C(C)(C)O)ncc32)ccn1` [Example 294, 1-[(1S)-1-(4-fluorophenyl)-2-hydroxy-2-methylpropyl]-3-[1-(2-methylpyridin-4-yl)-1H-pyrazolo[3,4-c]pyridin-5-yl]urea], the half-inhibitory concentration (IC50) came out at 1.08 nM.

Take `Cc1cc(-n2ncc3cc(NC(=O)N[C@@H]4CCN(C)C4)ncc32)ccn1` [Example 20, 1-[1-(2-methylpyridin-4-yl)-1H-pyrazolo[3,4-c]pyridin-5-yl]-3-[(3R)-1-methylpyrrolidin-3-yl)urea]: the IC50 was 50.5 nM.

On to `Cc1cc(-n2ncc3cc(NC(=O)NC4CCCN(Cc5cccnc5)C4)ncc32)ccn1` (stereo not shown) [Example 265], for which the IC50 is 115 nM.

With `C[C@@H](NC(=O)Nc1cc2cnn(C3CCOCC3)c2c(CO)n1)c1ccccc1` [Example 316, 1-[7-(hydroxymethyl)-1-(tetra-hydro-2H-pyran-4-yl)-1H-pyra-- zolo[3,4-c]pyridin-5-yl]-3-[(1R)-1-phenylethyl]urea], the IC50 turned out to be 236 nM.

In the case of `Cc1cc(-n2ncc3cc(NC(=O)N[C@H](CN4CCOCC4)c4ccccc4)ncc32)ccn1` [Example 127, 1-[1-(2-methylpyridin-4-yl)-1H-pyrazolo[3,4-c]pyridin-5-yl]-3-[(1S)-2-morpholin-4-yl-1-phenylethyl]urea], the half-maximal inhibitory concentration (IC50) is 152 nM.

Regarding `Cc1cc(-n2ncc3cc(NC(=O)NCC4CNC4)ncc32)ccn1` [Example 263, 1-(azetidin-3-ylmethyl)-3-(1-(2-methylpyridin-4-yl)-1H-pyrazolo[3,4-c]pyridin-5-yl)urea], the 50% inhibitory concentration (IC50) came out at 102 nM.

For `CC(C)(O)[C@@H](NC(=O)Nc1cc2cnn(-c3ccc(F)cc3)c2cn1)c1ccc(F)cc1` [Example 295, 1-[(1S)-1-(4-fluorophenyl)-2-hydroxy-2-methylpropyl]-3-[1-(4-fluorophenyl)-1H-pyrazolo[3,4-c]pyridin-5-yl]urea], the IC50 came out at 1.29 nM.

Consider `Cn1ncc2ccc(-n3ncc4cc(NC(=O)N[C@@H](c5ccccc5)C(C)(C)O)ncc43)cc21` [Example 206, 1-[(1S)-2-hydroxy-2-methyl-1-phenylpropyl]-3-[1-(1-methyl-1H-indazol-6-yl)-1H-pyrazolo[3,4-c]pyridin-5-yl]urea], for which the IC50 was found to be 0.99 nM.

On to `Cc1cc(-n2ncc3cc(NC(=O)NC(C)c4ccc(OC(F)(F)F)cc4)ncc32)ccn1` (stereo not shown) [Example 47], for which the IC50 is 40.3 nM.

`COCCCn1ncc2cc(NC(=O)N[C@H](C)c3ccccc3)nc(CO)c21` [Example 301, 1-[7-(hydroxymethyl)-1-(3-methoxypropyl)-1H-pyrazolo[3,4-c]pyridin-5-yl]-3-[(1R)-1-phenylethyl]urea]: the concentration for half-maximal inhibition (IC50) turned out to be 78 nM.

Take `Cc1cc(-n2ncc3cc(NC(=O)NCc4ccc5c(c4)CNC5=O)ncc32)ccn1` [Example 84, 1-[1-(2-methylpyridin-4-yl)-1H-pyrazolo[3,4-c]pyridin-5-yl]-3-[(1-oxo-2,3-dihydro-1H-isoindol-5-yl)methyl]urea]: the IC50 stood at 17.4 nM.

Take `Cc1cc(-n2ncc3cc(NC(=O)N[C@H](CCO)c4ccccc4)ncc32)ccn1` [Example 89, 1-[(1R)-3-hydroxy-1-phenylpropyl]-3-[1-(2-methylpyridin-4-yl)-1H-pyrazolo[3,4-c]pyridin-5-yl)urea]: the IC50 was determined as 0.821 nM.

Take `Cc1cc(-n2ncc3cc(NC(=O)NCc4cccc(-n5cccn5)c4)ncc32)ccn1` [Example 75]: the 50% inhibitory concentration (IC50) was determined as 5.28 nM.

Consider `Cn1cc2cc(-n3ncc4cc(NC(=O)N[C@@H](c5ccccc5)C(C)(C)O)ncc43)ccc2n1` [Example 207, 1-[(1S)-2-hydroxy-2-methyl-1-phenylpropyl]-3[-1-(2-methyl-2H-indazol-5-yl)-1H-pyrazolo[3,4-c]pyridin-5-yl]urea], for which the IC50 is 0.33 nM.

Regarding `C[C@@H](NC(=O)Nc1cc2cnn(-c3ccc(F)cc3)c2c(CN)n1)c1ccccc1` [Example 319, 1-[7-(aminomethyl)-1-(4-fluorophenyl)-1H-pyrazolo[3,4-c]pyridin-5-yl]-3-[(1R)-1-phenylethyl]urea], the concentration for half-maximal inhibition (IC50) turned out to be 516 nM.

With `Cc1cc(-n2ncc3cc(NC(=O)N[C@H]4CN(C)C[C@@H]4C4CCCCC4)ncc32)ccn1` [Example 31, 1-[(3R,4S)-4-cyclohexyl-1-methylpyrrolidin-3-yl]-3-[1-(2-methylpyridin-4-yl)-1H-pyrazolo[3,4-c]pyridin-5-yl]urea], the IC50 is 35.1 nM.

On to `Cc1cc(-n2ncc3cc(NC(=O)N[C@H]4CN(C)C[C@@H]4c4ccc(C)s4)ncc32)ccn1` [Example 189, 1-[(3R,4S)-1-methyl-4-(5-methylthiophen-2-yl)pyrrolidin-3-yl]-3-[1-(2-methylpyridin-4-yl)-1H-pyrazolo[3,4-c]pyridin-5-yl]urea], for which the IC50 worked out at 0.254 nM.

In the case of `Cc1cc(-n2ncc3cc(NC(=O)N[C@@H]4CN(C)C5(COC5)[C@H]4c4ccccc4)ncc32)ccn1` [Example 201, 1-[(7S,8S)-5-methyl-8-phenyl-2-oxa-5-azaspiro[3.4]oct-7-yl]-3-[1-(2-methylpyridin-4-yl)-1H-pyrazolo[3,4-c]pyridin-5-yl]urea], the IC50 came to 0.689 nM.

Regarding `CO[C@H]1CN(Cc2c(F)cccc2F)C[C@@H]1NC(=O)Nc1cc2cnn(-c3ccnc(C)c3)c2cn1` (single isomer, unassigned) [Example 273, 1-[(3S,4S) or (3R, 4R)-1-(2,6-difluorobenzyl)-4-methoxypyrrolidin-3-yl]-3-[1-(2-methylpyridin-4-yl)-1H-pyrazolo[3,4-c]pyridin-5-yl]urea], the concentration for half-maximal inhibition (IC50) is 2060 nM.

In the case of `COCCNCc1nc(NC(=O)N[C@H](C)c2ccccc2)cc2cnn(-c3ccnc(C)c3)c12` [Example 321, 1-[7-{[(2-methoxyethyl)amino]methyl}-1-(2-methylpyridin-4-yl)-1H-pyrazolo[3,4-c]pyridin-5-yl]-3-[(1R)-1-phenylethyl]urea], the IC50 came to 103 nM.

Consider `Cc1cc(-n2ncc3cc(NC(=O)NCCN(C)C)ncc32)ccn1` [Example 15, 1-(2-(dimethylamino)ethyl)-3-(1-(2-methylpyridin-4-yl)-1H-pyrazolo[3,4-c]pyridin-5-yl)urea], for which the half-inhibitory concentration (IC50) worked out at 1430 nM.

`Cc1cc(-n2ncc3cc(NC(=O)NC4CCN(Cc5cccnc5Cl)C4)ncc32)ccn1` (stereo not shown) [Example 281, 1-{1-[(2-chloropyridin-3-yl)methyl]pyrrolidin-3-yl}-3-[1-(2-methylpyridin-4-yl)-1H-pyrazolo[3,4-c]pyridin-5-yl]urea]: the IC50 is 2.84 nM.

Consider `C[C@@H](O)[C@@H](NC(=O)Nc1cc2cn[nH]c2cn1)c1ccccc1` [Example 227, 1-((1S,2R)-2-Hydroxy-1-phenylpropyl)-3-(1H-pyrazolo[3,4-c]pyridin-5-yl)urea], for which the IC50 was determined as 134 nM.
